Data taken from paper PMC4122355, “Inhibitor of the Tyrosine Phosphatase STEP Reverses Cognitive Deficits in a Mouse Model of Alzheimer's Disease” (PLoS Biology, 2014).

Columns and labels:
PTP1B = biological target: T1, PTP1B (Homo sapiens, UniProt P18031); test: Selectivity pNPP assay, full-length PTPs: PTP1B; type: biochemical; details: full-length PTP, 10 nM, 500 µM pNPP
T1 construct: GST (N); host or cells: E. coli BL21 (DE3)
T1 sequence (P18031 1-435): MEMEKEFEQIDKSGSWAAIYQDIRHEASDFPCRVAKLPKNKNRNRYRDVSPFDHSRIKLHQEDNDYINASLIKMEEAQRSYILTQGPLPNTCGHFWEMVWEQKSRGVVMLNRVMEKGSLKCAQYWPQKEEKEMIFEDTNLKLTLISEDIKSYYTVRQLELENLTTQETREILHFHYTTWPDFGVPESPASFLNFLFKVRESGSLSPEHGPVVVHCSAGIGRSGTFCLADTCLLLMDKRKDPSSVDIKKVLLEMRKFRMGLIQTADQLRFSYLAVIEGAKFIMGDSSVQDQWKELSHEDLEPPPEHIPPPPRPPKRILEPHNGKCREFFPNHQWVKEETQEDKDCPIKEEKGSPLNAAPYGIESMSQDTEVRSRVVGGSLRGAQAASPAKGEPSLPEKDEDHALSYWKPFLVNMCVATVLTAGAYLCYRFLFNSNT
From the text: Constructs were transformed into BL21 (DE3) E. coli cells. Fusion proteins were purified on a glutathione sepharose column.

[1] = system: GluN2B (Y1472), Pyk2 (Y402), ERK1/2 (Y204/187) in cortical neurons; test: Tyr phosphorylation of STEP substrates in cortical neuronal cultures (Western blot); type: cell-based, rat; details: 1 µM dose, 1 h, relative to vehicle
Procedure: Primary cortical neurons were isolated from Sprague Dawley rat embryos (E18) (Charles River Laboratories, Wilmington, MA) as previously described. In some experiments, cortical neurons were made from WT and STEP KO mouse embryos (E18). Neurons were allowed to grow for 18–21 d in CO2 incubator before addition of compounds at indicated doses for 1 h. Immediately following treatments, neurons were lysed in RadioImmuno Precipitation Assay (RIPA) buffer supplied with protease inhibitor cocktail (Roche Applied Science, Indianapolis, IN) and phosphatase inhibitors (NaF and Na3VO4). All experiments were replicated four times with four independent batches of cultures.
Samples were prepared and resolved by SDS-PAGE, transferred to nitrocellulose membrane, and incubated with phospho-specific antibodies (anti-pY^204/187 ERK1/2, anti-pY^402 Pyk2, anti-pY^1472 GluN2B) or total protein antibodies (anti-ERK2, anti-Pyk2, and anti-NR2B) overnight at 4°C. Immunoreactivity was visualized using a Chemiluminescent substrate kit (Pierce Biotechnology, Rockford, IL) and detected using a G:BOX with the image program GeneSnap (Syngene, Cambridge, UK). All densitometric quantifications were performed using the Genetools program.

STEP = biological target: T2, STEP (Mus musculus, UniProt P54830); test: Recovery of STEP activity by reducing agents; type: biochemical; details: after 1 h, DMSO control = 100%
T2 sequence (P54830 1-541): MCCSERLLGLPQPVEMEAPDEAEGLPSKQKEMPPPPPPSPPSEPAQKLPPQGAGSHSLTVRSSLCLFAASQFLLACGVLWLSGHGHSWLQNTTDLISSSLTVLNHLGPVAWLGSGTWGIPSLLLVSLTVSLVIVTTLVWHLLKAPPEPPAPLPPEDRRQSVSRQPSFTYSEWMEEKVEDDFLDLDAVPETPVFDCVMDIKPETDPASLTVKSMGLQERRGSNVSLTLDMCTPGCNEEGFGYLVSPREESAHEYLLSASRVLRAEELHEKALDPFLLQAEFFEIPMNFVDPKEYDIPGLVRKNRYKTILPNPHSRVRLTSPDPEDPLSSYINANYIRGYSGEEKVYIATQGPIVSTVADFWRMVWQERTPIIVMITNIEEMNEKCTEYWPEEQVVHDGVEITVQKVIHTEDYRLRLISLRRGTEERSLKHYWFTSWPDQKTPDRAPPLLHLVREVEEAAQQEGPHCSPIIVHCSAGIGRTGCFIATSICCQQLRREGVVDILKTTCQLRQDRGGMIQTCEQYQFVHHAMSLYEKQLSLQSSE
Procedure: Each sample was aliquoted out and 50 µL was transferred to wells of a 96-well microtiter plate containing 40 µL of 2× assay buffer with added reductant (GSH or DTT, 1 mM final concentration) and shaken for 0, 15, 30, or 60 additional minutes at ambient temperature. The reaction was started by addition of 10 µL of 10× pNPP substrate (stock, 20 mM, 2 mM in assay; total assay volume, 100 µL), and reaction progress was immediately monitored at 405 nm at a temperature of 27°C. The initial rate data collected were used to determine enzyme activity standardized to the DMSO controls.

[2] = Stability in imidazole buffer by 19F NMR; type: physicochemical; details: 1 h
Procedure: The tube was allowed to incubate at ambient temperature with shaking for 1 h. The mixture was diluted with 150 µL of DMSO-d6 and transferred to an NMR tube containing a capillary of trifluoroacetic acid as an external standard (−76.55 ppm). The stability of the compound in the buffer was confirmed by observing no differences in the sensitive ^19F-NMR spectra (Figure S4). As a control for compound modification, the experiment was repeated with the addition of 1 mM GSH in the incubation buffer.

mice = system: mice; parameters: method as in earlier work; details: cited from earlier work
[3] = cited from earlier work
[4] = cited from earlier work; remark: listed apart in the source
PTP-SL = PTP-SL (Homo sapiens, UniProt Q15256); test: biochemical
Sequence of PTP-SL (Q15256 22-657): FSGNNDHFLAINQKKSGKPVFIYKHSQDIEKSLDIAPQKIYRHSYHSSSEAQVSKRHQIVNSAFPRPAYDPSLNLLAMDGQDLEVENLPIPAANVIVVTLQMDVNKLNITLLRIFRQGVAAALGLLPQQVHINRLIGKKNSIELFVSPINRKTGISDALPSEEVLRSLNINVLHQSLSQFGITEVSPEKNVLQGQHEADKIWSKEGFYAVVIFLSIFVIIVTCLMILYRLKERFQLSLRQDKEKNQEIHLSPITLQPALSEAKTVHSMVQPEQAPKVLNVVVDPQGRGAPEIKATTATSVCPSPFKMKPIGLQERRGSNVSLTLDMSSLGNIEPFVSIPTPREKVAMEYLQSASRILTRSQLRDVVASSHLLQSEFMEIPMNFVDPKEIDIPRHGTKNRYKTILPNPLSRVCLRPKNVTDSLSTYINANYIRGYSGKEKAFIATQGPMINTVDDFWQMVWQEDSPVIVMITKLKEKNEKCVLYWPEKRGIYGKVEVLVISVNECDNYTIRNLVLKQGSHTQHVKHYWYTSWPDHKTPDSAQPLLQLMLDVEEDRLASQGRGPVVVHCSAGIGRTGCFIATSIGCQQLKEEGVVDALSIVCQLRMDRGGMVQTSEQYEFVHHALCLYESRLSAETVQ
Procedure: Full-length HePTP and PTP-SL proteins were purchased from Abnova (Taipei, Taiwan). All proteins were dialyzed in 1,000-fold volume of buffer, which was repeated three times. […] After 10 min preincubation of enzyme and inhibitor at 27°C, 500 µM of pNPP was added and incubated for 30 min. Absorbance was taken at 405 nm using a Biotek plate reader.

## Cl.Nc1cc(C(F)(F)F)cc2c1SSSSS2 [TC-2153, 8-(trifluoromethyl)-1,2,3,4,5-benzopentathiepin-6-amine hydrochloride]
PTP1B
  IC50: 723.9 ± 1.2 nM
[1]
  pERK1/2 (Y204/187), phospho-signal normalized to total protein and GAPDH: 2.39±0.18
  pGluN2B (Y1472), phospho-signal normalized to total protein and GAPDH: 2.07±0.15
  pPyk2 (Y402), phospho-signal normalized to total protein and GAPDH: 1.81±0.21
STEP; STEP 200 nM preincubated with 5 µM TC-2153, 1 mM DTT
  Recovery of STEP activity with DTT: 75%
STEP; STEP 200 nM preincubated with 5 µM TC-2153, 1 mM GSH
  Recovery of STEP activity with GSH: 29%
[2]; 1 mM GSH in pH 7.0 imidazole buffer
  Stability with GSH (19F NMR): compound modification clearly observed
[2]; pH 7.0 imidazole buffer
  Stability in assay conditions (19F NMR): stable and did not degenerate in the assay conditions
mice
  Behavioural effects taken as evidence of crossing the blood brain barrier: anxiolytic and anticonvulsant effects
[3]
  Solubility in aqueous solution: reasonable solubility in aqueous solution
[4]
  LD50 (acute toxicity): > 1,000 mg/kg
PTP-SL
  IC50: 220.6 ± 1.3 nM
